Data published in ChEMBL document CHEMBL1201862, “PubChem BioAssay data set” (2004).
Activity calls are given as the source filed them. Cut-off read from the data, not from the text of the source, for most assays here: actives have a measured EC50 and inactives only a lower limit.

Legend:
[1] = molecular target: T1, Calpain-2 catalytic subunit (Sus scrofa, UniProt P43367); assay: m-calpain protease blockers, concentration series – biochemical, fluorogenic peptide substrate, dose response (AID 1420); format: functional
T1 sequence (P43367 whole entry): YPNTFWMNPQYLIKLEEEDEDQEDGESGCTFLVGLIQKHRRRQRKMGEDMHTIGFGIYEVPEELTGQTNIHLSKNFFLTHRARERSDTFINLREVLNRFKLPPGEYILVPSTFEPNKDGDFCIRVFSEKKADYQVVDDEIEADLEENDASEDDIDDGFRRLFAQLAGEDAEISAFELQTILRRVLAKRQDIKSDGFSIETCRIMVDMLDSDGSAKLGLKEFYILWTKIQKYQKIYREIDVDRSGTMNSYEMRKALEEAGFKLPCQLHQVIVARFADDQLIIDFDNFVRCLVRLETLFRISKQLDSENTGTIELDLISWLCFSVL

[2] = Luminescence Cell-Based Dose Confirmation HTS to Identify Inhibitors of Platelet Dense Granule Release. [Related pubchem assays: 1663 (Primary HTS), 1678 (Summary of Project)]; format: functional
[3] = molecular target: Luciferin 4-monooxygenase (Photinus pyralis, UniProt P08659); assay: inhibition of purified Photinus pyralis luciferase – biochemical, luminescence, dose response (AID 1891)
Chain of Luciferin 4-monooxygenase (P08659 whole entry): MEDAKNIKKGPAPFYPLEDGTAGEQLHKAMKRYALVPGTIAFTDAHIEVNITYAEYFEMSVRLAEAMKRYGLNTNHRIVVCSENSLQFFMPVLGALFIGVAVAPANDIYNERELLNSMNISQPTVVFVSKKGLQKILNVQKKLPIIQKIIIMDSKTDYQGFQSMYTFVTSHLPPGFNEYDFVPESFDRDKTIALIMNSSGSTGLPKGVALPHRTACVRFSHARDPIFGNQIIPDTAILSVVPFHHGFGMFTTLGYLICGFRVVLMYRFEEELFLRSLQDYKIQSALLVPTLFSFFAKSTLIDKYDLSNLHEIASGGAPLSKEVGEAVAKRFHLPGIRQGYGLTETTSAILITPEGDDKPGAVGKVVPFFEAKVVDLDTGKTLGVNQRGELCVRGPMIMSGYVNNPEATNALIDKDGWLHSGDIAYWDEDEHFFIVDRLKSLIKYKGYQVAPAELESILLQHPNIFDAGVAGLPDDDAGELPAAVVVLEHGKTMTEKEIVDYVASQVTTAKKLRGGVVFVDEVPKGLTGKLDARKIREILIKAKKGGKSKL

[4] = molecular target: T2, Zinc finger protein mex-5 (Caenorhabditis elegans, UniProt Q9XUB2); assay: potency of MEX-5 RNA-binding blockers – biochemical, C. elegans, fluorescence polarization, dose response (AID 1960)
T2 sequence (Q9XUB2 whole entry): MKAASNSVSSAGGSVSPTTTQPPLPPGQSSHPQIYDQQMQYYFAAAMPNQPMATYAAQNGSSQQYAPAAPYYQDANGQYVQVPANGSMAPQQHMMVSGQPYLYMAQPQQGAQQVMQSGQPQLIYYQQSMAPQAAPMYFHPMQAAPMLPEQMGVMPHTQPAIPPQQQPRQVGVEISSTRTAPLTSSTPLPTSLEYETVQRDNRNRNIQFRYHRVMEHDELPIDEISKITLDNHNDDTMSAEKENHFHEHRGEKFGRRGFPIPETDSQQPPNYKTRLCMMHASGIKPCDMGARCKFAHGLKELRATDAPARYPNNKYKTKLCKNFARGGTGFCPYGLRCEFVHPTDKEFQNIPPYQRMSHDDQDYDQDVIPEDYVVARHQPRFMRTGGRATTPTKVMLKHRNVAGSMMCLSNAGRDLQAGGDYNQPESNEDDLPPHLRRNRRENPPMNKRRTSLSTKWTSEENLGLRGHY

[5] = molecular target: T3, RNA-binding protein pos-1 (Caenorhabditis elegans, UniProt G5EF15); assay: disruptors of C. elegans POS-1 RNA interaction – biochemical, fluorescence polarization, dose response (AID 1964);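 note: purified POS-1 fused to maltose binding protein made in E. coli; potency of compounds blocking POS-1 binding to fluorescent RNA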
T3 sequence (G5EF15 whole entry): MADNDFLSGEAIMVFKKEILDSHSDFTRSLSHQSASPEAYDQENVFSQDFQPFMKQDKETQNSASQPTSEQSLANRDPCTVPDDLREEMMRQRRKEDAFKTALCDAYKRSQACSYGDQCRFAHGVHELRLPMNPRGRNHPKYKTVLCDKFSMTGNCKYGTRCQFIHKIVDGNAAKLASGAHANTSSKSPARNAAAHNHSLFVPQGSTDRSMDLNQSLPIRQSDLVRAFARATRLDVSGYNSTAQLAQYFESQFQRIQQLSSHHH

[6] = molecular target: T4, DNA repair protein RAD52 homolog (Homo sapiens, UniProt P43351); format: functional, biochemical
T4 sequence (P43351 whole entry): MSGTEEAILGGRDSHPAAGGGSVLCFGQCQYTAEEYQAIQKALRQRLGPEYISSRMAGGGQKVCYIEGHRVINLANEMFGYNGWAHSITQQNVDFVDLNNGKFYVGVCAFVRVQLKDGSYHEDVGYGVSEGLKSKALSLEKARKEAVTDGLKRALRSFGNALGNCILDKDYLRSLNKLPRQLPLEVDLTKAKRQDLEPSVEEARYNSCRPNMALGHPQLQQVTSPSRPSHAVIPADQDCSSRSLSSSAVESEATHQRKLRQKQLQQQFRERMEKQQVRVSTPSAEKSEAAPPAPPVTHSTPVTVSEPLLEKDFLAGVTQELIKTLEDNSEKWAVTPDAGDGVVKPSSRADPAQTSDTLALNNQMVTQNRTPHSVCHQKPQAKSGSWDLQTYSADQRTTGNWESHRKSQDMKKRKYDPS

[7] = luciferase reporter signal suppression in cells – H4 neuroglioma cells, luminescence, dose response (AID 1990); format: functional, cell-based
[8] = alpha-synuclein stem-loop luciferase translation blockers – H4 neuroglioma cells, luminescence, confirmation (AID 1988); format: functional, cell-based
BJ [9] = assay: BJ-TERT fibroblast viability loss – cell-based, RAS-independent, luminescence, dose response (AID 1933); format: functional; conditions: Homo sapiens
BJ [10] = assay: cells; format: functional, cell-based; conditions: Homo sapiens
[11] = DRD fibroblast viability loss – cell-based, non-viral oncogenic, luminescence, dose response (AID 1934); format: functional; conditions: Homo sapiens
BJ [12] = assay: BJ-TERT-LT-ST fibroblast viability loss – cell-based, RAS-independent, luminescence, dose response (AID 1935); format: functional; conditions: Homo sapiens;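 note: BJ fibroblasts immortalized with TERT plus LT and ST oncogenes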
[13] = Luminescence Cell-Based Dose Response HTS to Identify Inhibitors of 5'UTR Stem-Loop Driven Prion Protein mRNA Translation in H4 Neuroglioblastoma Cells. [Related pubchem assays: 1827 (Project Summary), 1813 (Primary HTS)]; format: functional
[14] = A cytotoxicity screen of small molecule inhibitors of the PhoP region in Salmonella typhi identified in the primary screen. [Related pubchem assays: 1850, 1864, 1985 ]; format: functional
Fatty acid synthase [15] = molecular target: T5, Fatty acid synthase (Homo sapiens, UniProt P49327); assay: inhibition of human FAS-TE enzyme activity – biochemical, kinetic fluorescence intensity, dose response (AID 624326); format: functional;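 note: rate of fluorescence rise from hydrolysis of a fluorogenic O-methyl fluorescein ester substrate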
T5 sequence (P49327 whole entry): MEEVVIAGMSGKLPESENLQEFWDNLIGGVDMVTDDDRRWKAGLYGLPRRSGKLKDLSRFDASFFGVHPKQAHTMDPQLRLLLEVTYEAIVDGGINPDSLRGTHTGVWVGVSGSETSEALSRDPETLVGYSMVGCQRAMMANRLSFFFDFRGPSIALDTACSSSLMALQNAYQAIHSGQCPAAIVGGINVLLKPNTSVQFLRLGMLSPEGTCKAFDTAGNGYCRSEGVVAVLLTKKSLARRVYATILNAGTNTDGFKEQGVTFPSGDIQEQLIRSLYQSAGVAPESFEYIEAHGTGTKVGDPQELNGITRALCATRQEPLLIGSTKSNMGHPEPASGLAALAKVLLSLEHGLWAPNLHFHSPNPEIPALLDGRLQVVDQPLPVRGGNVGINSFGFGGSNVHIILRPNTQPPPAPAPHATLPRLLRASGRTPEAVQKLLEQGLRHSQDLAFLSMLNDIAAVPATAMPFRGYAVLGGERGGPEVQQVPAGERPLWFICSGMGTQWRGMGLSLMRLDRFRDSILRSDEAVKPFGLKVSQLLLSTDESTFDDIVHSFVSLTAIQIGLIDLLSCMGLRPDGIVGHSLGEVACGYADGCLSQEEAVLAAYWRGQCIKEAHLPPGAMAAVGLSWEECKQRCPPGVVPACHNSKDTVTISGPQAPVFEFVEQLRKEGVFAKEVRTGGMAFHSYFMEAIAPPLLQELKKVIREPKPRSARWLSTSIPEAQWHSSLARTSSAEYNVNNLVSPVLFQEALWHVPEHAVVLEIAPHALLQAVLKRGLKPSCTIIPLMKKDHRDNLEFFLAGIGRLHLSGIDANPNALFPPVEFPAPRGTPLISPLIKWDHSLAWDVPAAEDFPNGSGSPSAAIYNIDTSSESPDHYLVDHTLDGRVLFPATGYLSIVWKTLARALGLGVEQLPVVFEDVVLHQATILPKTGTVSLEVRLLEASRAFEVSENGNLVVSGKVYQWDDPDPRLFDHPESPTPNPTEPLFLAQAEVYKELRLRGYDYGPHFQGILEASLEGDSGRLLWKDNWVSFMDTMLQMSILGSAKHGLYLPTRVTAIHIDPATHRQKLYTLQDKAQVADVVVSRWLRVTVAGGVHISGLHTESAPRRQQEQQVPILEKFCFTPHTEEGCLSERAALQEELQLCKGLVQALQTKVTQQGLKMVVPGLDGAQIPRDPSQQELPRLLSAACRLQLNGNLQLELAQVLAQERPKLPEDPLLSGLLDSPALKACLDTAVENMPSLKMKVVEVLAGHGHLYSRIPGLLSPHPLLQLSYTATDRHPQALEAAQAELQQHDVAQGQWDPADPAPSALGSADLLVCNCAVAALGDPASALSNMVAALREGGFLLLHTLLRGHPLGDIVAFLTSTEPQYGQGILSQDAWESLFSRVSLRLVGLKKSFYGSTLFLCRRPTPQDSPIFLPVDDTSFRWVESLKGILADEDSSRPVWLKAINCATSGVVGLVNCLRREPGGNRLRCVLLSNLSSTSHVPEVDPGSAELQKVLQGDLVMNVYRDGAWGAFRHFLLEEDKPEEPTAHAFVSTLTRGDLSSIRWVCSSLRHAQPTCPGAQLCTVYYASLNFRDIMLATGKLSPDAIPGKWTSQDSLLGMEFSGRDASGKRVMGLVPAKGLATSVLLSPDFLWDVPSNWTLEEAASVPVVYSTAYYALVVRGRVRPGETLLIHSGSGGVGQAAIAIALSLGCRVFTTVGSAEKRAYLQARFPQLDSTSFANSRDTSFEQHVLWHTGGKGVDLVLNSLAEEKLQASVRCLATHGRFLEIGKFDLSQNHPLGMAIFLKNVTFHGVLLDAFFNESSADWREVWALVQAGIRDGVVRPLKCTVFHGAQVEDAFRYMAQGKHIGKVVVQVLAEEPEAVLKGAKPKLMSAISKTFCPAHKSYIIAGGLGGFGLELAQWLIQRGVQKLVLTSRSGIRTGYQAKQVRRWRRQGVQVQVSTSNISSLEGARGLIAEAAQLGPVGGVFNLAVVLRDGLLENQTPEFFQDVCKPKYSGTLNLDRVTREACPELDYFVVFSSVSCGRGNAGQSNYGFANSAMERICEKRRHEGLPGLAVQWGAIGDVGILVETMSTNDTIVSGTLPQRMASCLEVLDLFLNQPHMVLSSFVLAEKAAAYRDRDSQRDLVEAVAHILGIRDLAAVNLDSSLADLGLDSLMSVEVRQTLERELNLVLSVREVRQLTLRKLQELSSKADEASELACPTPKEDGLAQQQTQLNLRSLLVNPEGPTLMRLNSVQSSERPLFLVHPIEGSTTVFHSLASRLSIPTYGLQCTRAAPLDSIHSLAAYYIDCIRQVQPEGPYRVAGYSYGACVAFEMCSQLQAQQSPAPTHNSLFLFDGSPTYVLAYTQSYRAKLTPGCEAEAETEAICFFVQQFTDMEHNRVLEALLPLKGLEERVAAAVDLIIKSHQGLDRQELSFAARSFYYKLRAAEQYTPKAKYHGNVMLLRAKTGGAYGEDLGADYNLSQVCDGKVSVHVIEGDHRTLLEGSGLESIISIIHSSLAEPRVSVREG

Fatty acid synthase [16] = molecular target: T5, Fatty acid synthase; assay: inhibition of human FAS-TE enzyme activity – biochemical, endpoint fluorescence intensity, uHTS hits, dose response (AID 624327); format: functional;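 note: fluorescence from hydrolysis of an O-methyl fluorescein acyl ester substrate by the enzyme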
cells [17] = format: functional, cell-based
cells [18] = format: functional, cell-based; remark: listed apart in the source
Leucine aminopeptidase = molecular target: T6, Leucine aminopeptidase (Plasmodium falciparum 3D7, UniProt Q8IL11); assay: P. falciparum M17LAP inhibitors, primary screen, biochemical, fluorogenic H-Leu-NHMec substrate, 1536-well (AID 1619); format: functional
T6 sequence (Q8IL11 whole entry): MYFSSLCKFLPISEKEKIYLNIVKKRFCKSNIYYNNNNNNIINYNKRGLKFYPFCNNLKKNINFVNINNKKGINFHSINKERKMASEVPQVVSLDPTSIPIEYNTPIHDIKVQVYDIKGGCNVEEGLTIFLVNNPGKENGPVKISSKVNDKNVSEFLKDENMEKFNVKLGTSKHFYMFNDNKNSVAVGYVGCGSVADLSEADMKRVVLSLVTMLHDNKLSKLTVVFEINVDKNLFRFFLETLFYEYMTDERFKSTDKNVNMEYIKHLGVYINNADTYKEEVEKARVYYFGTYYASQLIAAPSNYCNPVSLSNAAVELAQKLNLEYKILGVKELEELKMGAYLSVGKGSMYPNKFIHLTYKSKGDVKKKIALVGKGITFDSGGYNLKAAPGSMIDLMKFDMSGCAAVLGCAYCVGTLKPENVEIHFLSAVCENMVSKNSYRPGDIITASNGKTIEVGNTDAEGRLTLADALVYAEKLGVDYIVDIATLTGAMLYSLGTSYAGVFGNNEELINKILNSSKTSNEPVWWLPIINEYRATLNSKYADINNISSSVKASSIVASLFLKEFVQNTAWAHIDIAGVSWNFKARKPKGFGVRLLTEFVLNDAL

For `O=C(Oc1ccc2c(c1)OCO2)C12CC3CC(CC(C3)C1)C2`, the IC50 [1] was 5.49 µM (not active).
For `COc1ccc(-c2nc(C[S+]([O-])CC(=O)NCCc3ccc(C)cc3)c(C)o2)cc1OC` (stereo not given), the EC50 [2] was > 112 µM (not active) and the EC50 [3] was > 112 µM (not active).
With `CCOc1ccc(N2C(=O)S/C(=C\c3cccn3C)C2=O)cc1` the EC50 [4] was > 300 µM (not active), the EC50 [2] was > 112 µM (not active) and the EC50 [5] was > 300 µM (inconclusive). For the same molecule, the EC50 [3] was > 112 µM (not active).
For `CCN(CC)CCNc1nc(-c2cccs2)c(CC(=O)O)s1`, the AC50 [6] was 14 µM (active).
In the case of `NC1(C(=O)O)CCCc2ccc(N(CCCl)CCCl)cc21` (stereo not given), the AC50 [6] is reported as 16 µM (active).
In the case of `CCN(CC(=O)NCc1ccc(F)cc1)C(=O)/C=C/c1ccc(OC)c(S(=O)(=O)NC(C)C)c1`, the EC50 [7] is reported as > 120 µM (not active), the EC50 [8] is reported as 9.81 µM (active) and the EC50 (BJ [9]) is reported as 9.24 µM (inconclusive). For the same molecule, the EC50 (BJ [10]) was 13.4 µM (active), the EC50 [11] was 13.7 µM (inconclusive) and the EC50 (BJ [12]) was 4.34 µM (inconclusive). For the same molecule, the EC50 [13] was > 120 µM (not active).
With `S=C(Nc1ccccc1Cl)N(Cc1ccccc1)Cc1ccccn1` the EC50 [14] was > 50 µM (active).
In the case of `c1ccc2nc(-c3nc4ccccc4[nH]3)ccc2c1`, the EC50 [8] is reported as 9.4 µM (active), the EC50 [2] is reported as 2.16 µM (active) and the EC50 [3] is reported as 0.49 µM (active). The EC50 [13] was 11.1 µM (inconclusive).
In the case of `CCCCNC(=O)CCC(=O)Nc1ccc2nc(N3CCC(C)CC3)cc(C)c2c1`, the EC50 [14] is reported as > 50 µM (active).
In the case of `Cc1ccsc1/C=N/Nc1nc(O)nnc1C`, the EC50 [2] is reported as 5.47 µM (active) and the EC50 [3] is reported as 0.519 µM (active).
In the case of `CN(Cc1ccccc1)c1ccc(S(=O)(=O)N2CCOCC2)cn1`, the EC50 [2] is reported as > 112 µM (not active) and the EC50 [3] is reported as > 112 µM (not active).
With `COc1ccc([N+](=O)[O-])cc1NC(=O)C(C)OC(=O)/C=C/c1ccco1` (stereo not given) the IC50 (Fatty acid synthase [15]) was 6.45 µM (active) and the IC50 (Fatty acid synthase [16]) was 3.26 µM (active).
In the case of `CCOc1c(Br)cc(CNc2ccc3c(c2)OCCO3)cc1OC`, the EC50 [7] is reported as 4.32 µM (active), the EC50 [8] is reported as 0.31 µM (active) and the EC50 (BJ [9]) is reported as 2.12 µM (active). For the same molecule, the EC50 (BJ [10]) was 17.7 µM (active), the EC50 [11] was 1.29 µM (active) and the EC50 (BJ [12]) was 1.41 µM (inconclusive). The EC50 [13] was 3.63 µM (active).
For `CC(C(=O)NCCC1=CCCCC1)c1ccc([N+](=O)[O-])cc1` (stereo not given), the IC50 (Fatty acid synthase [15]) was 5.99 µM (active) and the IC50 (Fatty acid synthase [16]) was 5.76 µM (active).
For `CCCCCC(=O)NNC(=S)NC(=O)c1cccc([N+](=O)[O-])c1`, the EC50 (cells [17]) was > 350 µM (not active), the EC50 (cells [18]) was > 350 µM (not active) and the IC50 (Leucine aminopeptidase) was 24.4 µM (active).
